Measurements taken from patent publication US6008356A, “Pharmaceutically available protoberberine salts derivatives, and protoberberine salts derivatives, and protoberberine derivatives and salts thereof” (priority 1998, dated 1999).
≈ marks a conversion by molar mass, not a printed value. Read-outs that look alike come from different tables or passages of the source.

Tests used:
C. albicans ATCC 10231 = assay: MIC; assay type: cell-based; conditions: Candida albicans, ATCC10231
C. albicans U.K. = assay: MIC; assay type: cell-based; conditions: Candida albicans
C. glabrata = assay: MIC; assay type: cell-based; conditions: Nakaseomyces glabratus
C. albicans OY 003 = assay: MIC; assay type: cell-based, Candida albicans; conditions: Candida albicans, OY003
C. parapsilosis = assay: MIC; assay type: cell-based; conditions: Lodderomyces parapsilosis
E. floccosum = assay: MIC; assay type: cell-based, Epidermophyton floccosum; conditions: Epidermophyton floccosum
C. glulliermendi = assay: MIC; assay type: cell-based
C. albicans KCTC 1940 = assay: MIC; assay type: cell-based, Candida albicans; conditions: Candida albicans, KCTC1940
C. albicans IFO 1385 = assay: MIC; assay type: cell-based, Candida albicans; conditions: Candida albicans, IFO1385
C. krusei = assay: MIC; assay type: cell-based; conditions: Pichia kudriavzevii
C. albicans ATCC 28838 = assay: MIC; assay type: cell-based, Candida albicans; conditions: Candida albicans, ATCC28838
C. albicans OY 019 = assay: MIC; assay type: cell-based, Candida albicans; conditions: Candida albicans, OY019
C. albicans ATCC 11651 = assay: MIC; assay type: cell-based, Candida albicans; conditions: Candida albicans, ATCC11651
Epidermophyton floccosum = assay: Antifungal efficacy of creamy formulation against local fungal skin infection; assay type: in vivo, mouse (SKH/1, hairless, male); conditions: topical
Method: Specific pathogen free SKH/1 male mouse(Hairless) of which weight is 30-35 g and age is 5 weeks, was reared with sterilized water and feed for 12 night/day in the condition of 21-23° C. and of 50% relative humidity. Five mice were allocated by each group. After skin infection, each mouse was taken in separate cage. The strain of microorganism for infection(Epidermophyton floccosum) was cultivated on a flat medium of SDA(Sabouraud Dextrose Agar) for 5-7 days and after confirmation of macrocomidia, 3 ml of RPMI (Rosewell Park Memorial Institute) 1640 media per each flat medium was added thereto and then scraped well using loop to remove hyphae from media. The floating liquid was suspended briefly and then diluted with RPMI 1640 media to adjust the concentration of hyphae to 2×10^6 CFU/ml. Mouse was anesthetized and marked on back site(lumbosacral area) in a shape of circle of which diameter is 1.5 cm. Then, the inner part of marked skin was scratched with sand paper. The scratched part was covered with a filter paper to preserve inoculated microorganism for a long time and thereby stimulating the skin continuously. 0.2 ml of fungus solution of which concentration is adjusted as described above, was inoculated between the skin and filter paper. 5 Days after the inoculation, the filter paper was removed and the infection of skin was examined. The test formulations, 0.5% creamy formulations of the compounds Nos. 62 and 85, 1.0% creamy formulation of Terbinafine(Lamisile cream) and a placebo was applied on the infected areas in a same amount once a day for 5 days. The clinical evaluation on the change of the infected area in 5 days after the inoculation was performed and expressed numerically from 0 to 4. The daily change of the infected area was checked every day. The result of each group was compared with each other.
1: Mild erythema or small number of skin eruption
2: Well-demarcated erythema with scales or mild skin eruption of infected area
3: Wide area of marked skin eruption, scales, swelling or severe skin eruption with partial swelling and scales
4: The same as those of control, or severe skin eruption in entire lesion
The result was calculated as follows;
T: Average score of clinical evaluation in drug treated area
K: Average score of clinical evaluation in placebo control group
Moreover, the antifungal efficacies of the 0.5% creamy formulation of the compounds Nos. 29, 35, 60, 62, 63 and 85, and 1% creamy formulation of Terbinafme (Lamisil cream), which are measured by applying the above formulations on the skin infected with Epidermophyton floccosum of mouse which is the standard animal for the test of local fungal skin infection, i.e, Specific Pathogen Free SKH/1, are described in the following Table 4.

[1] = C. albicans OY 003, read-out: MIC
[2] = C. albicans KCTC 1940, read-out: MIC
[3] = C. albicans IFO 1385, read-out: MIC
[4] = C. albicans ATCC 28838, read-out: MIC
[5] = C. albicans OY 019, read-out: MIC
[6] = C. albicans ATCC 11651, read-out: MIC

Row | MIC (C. albicans OY 003; [1]) | MIC (C. albicans KCTC 1940; [2]) | MIC (C. albicans IFO 1385; [3]) | MIC (C. albicans ATCC 28838; [4]) | MIC (C. albicans OY 019; [5]) | MIC (C. albicans ATCC 11651; [6]) | Structure (SMILES) | MIC (C. albicans ATCC 10231) | MIC (C. albicans U.K.) | MIC (C. glabrata) | MIC (C. albicans OY 003) | MIC (C. parapsilosis) | MIC (E. floccosum) | MIC (C. glulliermendi) | MIC (C. albicans KCTC 1940) | MIC (C. albicans IFO 1385) | MIC (C. krusei) | MIC (C. albicans ATCC 28838) | MIC (C. albicans OY 019) | MIC (C. albicans ATCC 11651) | also measured
1 | – | – | – | – | – | – | C[C@@H]1[C@H](O)[C@@H](C)/C=C/C=C/C=C/C=C/C=C/C=C/C=C/[C@H](O[C@@H]2O[C@H](C)[C@@H](O)[C@H](N)[C@@H]2O)C[C@@H]2O[C@](O)(C[C@@H](O)C[C@@H](O)[C@H](O)CC[C@@H](O)C[C@@H](O)CC(=O)O[C@H]1C)C[C@H](O)[C@H]2C(=O)O [Amphotericin B, reference compound] | 1.56 µg/mL (≈ 1.69 µM) | 3.12 µg/mL (≈ 3.38 µM) | 1.56 µg/mL (≈ 1.69 µM) | 0.78 µg/mL (≈ 0.844 µM) | 3.12 µg/mL (≈ 3.38 µM) | 12.5 µg/mL (≈ 13.5 µM) | 1.56 µg/mL (≈ 1.69 µM) | 0.78 µg/mL (≈ 0.844 µM) | 1.56 µg/mL (≈ 1.69 µM) | 0.78 µg/mL (≈ 0.844 µM) | 3.12 µg/mL (≈ 3.38 µM) | 0.4 µg/mL (≈ 0.433 µM) | 1.56 µg/mL (≈ 1.69 µM) | –
2 | – | – | – | – | – | – | CCC(C)n1ncn(-c2ccc(N3CCN(c4ccc(OCC5COC(Cn6cncn6)(c6ccc(Cl)cc6Cl)O5)cc4)CC3)cc2)c1=O (stereo not shown) [Itraconazole, reference compound] | – | – | – | > 100 µg/mL | – | 50 µg/mL (≈ 70.9 µM) | – | > 100 µg/mL | > 100 µg/mL | – | > 100 µg/mL | > 100 µg/mL | > 100 µg/mL | –
3 | – | – | – | – | – | – | Clc1ccc(COC(Cn2ccnc2)c2ccc(Cl)cc2Cl)c(Cl)c1 (stereo not shown) [Miconazole, reference compound] | 6.25 µg/mL (≈ 15 µM) | > 100 µg/mL | > 100 µg/mL | 1.56 µg/mL (≈ 3.75 µM) | 3.12 µg/mL (≈ 7.51 µM) | 6.25 µg/mL (≈ 15 µM) | 3.12 µg/mL (≈ 7.51 µM) | 1.56 µg/mL (≈ 3.75 µM) | 3.12 µg/mL (≈ 7.51 µM) | 3.12 µg/mL (≈ 7.51 µM) | 0.78 µg/mL (≈ 1.87 µM) | 1.56 µg/mL (≈ 3.75 µM) | 3.12 µg/mL (≈ 7.51 µM) | –
4 | – | – | – | – | – | – | CN(C/C=C/C#CC(C)(C)C)Cc1cccc2ccccc12 [Terbinabin, Terbinafine, reference compound] | – | – | – | – | – | – | – | – | – | – | – | – | – | Efficacy (%) 0 day later (Epidermophyton floccosum; 1.0% cream): 0%; Efficacy (%) 1 day later (Epidermophyton floccosum; 1.0% cream): 40.0%; Efficacy (%) 2 day later (Epidermophyton floccosum; 1.0% cream): 57.9%; Efficacy (%) 3 day later (Epidermophyton floccosum; 1.0% cream): 68.4%; Efficacy (%) 4 day later (Epidermophyton floccosum; 1.0% cream): 70.2%; Efficacy (%) 5 day later (Epidermophyton floccosum; 1.0% cream): 71.4%; Efficacy (%) 6 day later (Epidermophyton floccosum; 1.0% cream): 73.4%; Efficacy (%) 7 day later (Epidermophyton floccosum; 1.0% cream): 75.7%
5 | 6.25 µg/mL | 6.25 µg/mL | 12.5 µg/mL | 3.12 µg/mL | 6.25 µg/mL | 3.12 µg/mL | COc1ccc2c(Cc3ccc(C)c(C)c3)c3[n+](cc2c1OC)CCc1cc2c(cc1-3)OCO2 [compound 18, 13-(3,4-dimethylbenzyl)berberine chloride] | – | – | – | – | – | – | – | – | – | – | – | – | – | –
6 | 6.25 µg/mL | 1.56 µg/mL | 25 µg/mL | 3.12 µg/mL | 6.25 µg/mL | 1.56 µg/mL | COc1cc(Cc2c3[n+](cc4c(OC)c(OC)ccc24)CCc2cc4c(cc2-3)OCO4)cc(OC)c1OC [compound 29, 13-(3,4,5-trimethoxybenzyl)berberine chloride] | – | – | – | – | – | – | – | – | – | – | – | – | – | Efficacy (%) 0 day later (Epidermophyton floccosum; 0.5% cream): 0%; Efficacy (%) 1 day later (Epidermophyton floccosum; 0.5% cream): 30.0%; Efficacy (%) 2 day later (Epidermophyton floccosum; 0.5% cream): 33.4%; Efficacy (%) 3 day later (Epidermophyton floccosum; 0.5% cream): 34.6%; Efficacy (%) 4 day later (Epidermophyton floccosum; 0.5% cream): 48.0%; Efficacy (%) 5 day later (Epidermophyton floccosum; 0.5% cream): 56.4%; Efficacy (%) 6 day later (Epidermophyton floccosum; 0.5% cream): 63.0%; Efficacy (%) 7 day later (Epidermophyton floccosum; 0.5% cream): 65.8%
